Measured values taken from US9371330B2, “Substituted pyrazino[1,2-a]pyrimidines useful as CBP/catenin antagonists for enhancing asymmetric division of somatic stem cells” (University of Southern California, priority 2011, dated 2016).
Entries after “also recorded” stand apart in the source; their conditions may differ.

Key:
[1] = test system: mitotic cells in the ventricular zone (VZ); experiment: symmetric versus asymmetric divisions (Par3 distribution) in the ventricular zone of mouse embryos; type: in vivo
Source text: Taking advantage of the ready uptake and penetration through the placental barrier of applicant's small molecule Wnt modulators, applicant designed a series of experiments to investigate symmetric versus asymmetric divisions in the ventricular zone (VZ) of the brain during mouse embryonic development. Timed pregnant mice were topically treated for various time periods (1-3 days) with DMSO (vehicle control), the CBP/catenin antagonist ICG-001 or the p300/catenin antagonist IQ-1. Using a previously described protocol (56), the localization of […] (Par3) and DNA was examined in mitotic cells in the VZ. Par3 distributes symmetrically in cells that divide symmetrically and asymmetrically in cells that divide asymmetrically, whereas the DNA distributes symmetrically between the 2 cells. Using fluorescence microscopy, the percentage of mitotic cells dividing symmetrically or asymmetrically could be quantified. […] Antagonizing the CBP/catenin interaction with ICG-001 had no apparent effect yielding similarly, approximately 21% asymmetric divisions. […] Importantly, this decrease in asymmetric divisions upon treatment with IQ-1 could be rescued back essentially to control levels (i.e. ˜21%) by treatment with a 2-fold excess of ICG-001. Even further divergence in symmetric versus asymmetric divisions could be seen upon prolonged treatments. For example, treatment with IQ-1 (i.e., antagonizing p300/catenin interaction leading to increased usage of CBP) for 3 days (E13.5-16.5) decreased asymmetric divisions compared to control from 31% to 7%. […] This reporter mouse expresses EGFP, driven by the Tis21 promoter, in cells that have undergone neurogenic differentiative divisions.
For example, Bultje et al (Bultje R Neuron 63, 189-202, 2009) describe an assay to measure asymmetric distributions in the ventricular zone (vz) to evaluate asymmetric divisions during neurogenesis. Essentially this involves treating the animal (either adult or in utero) for a set period of time with compounds (either p.o., s.c., i.v. or topically) with compounds and then sacrificing the animal and examining the Par3 distribution (e.g., via immunohistochemistry) in mitotic cells vs. DNA distribution (e.g., using DAPI staining) Par3 distributes equally among the two daughter cells during symmetric division and unequally (essentially all in one daughter cell) during asymmetric differentiation.

[2] = test system: murine embryonic stem cells (mESCs); experiment: long-term culture of murine embryonic stem cells; type: cell-based, mouse; settings: Wnt-dependent
Source text: (§1) IQ-1. In addition to ICG-001, a screen of a large chemical library for maintenance of pluripotency in mES cells led to the identification of another compound, termed IQ-1 (FIG. 2b). […] I-Q-1 diminishes the interaction between p300 and beta-catenin thereby increasing the CBP/beta-catenin interaction (24).

[3] = test system: PR72/130 subunit of the serine/threonine phosphatase PP2A; experiment: binding to PP2A subunit
Source text: as §1

skin injury = skin injury repair in normal and hair-less mice; type: in vivo, mouse; settings: 500 μM in vaseline, once a day for eight days
Procedure: The ability of CBP/catenin (e.g., CBP/β-catenin) antagonist to accelerate injured skin repair in normal mice models (having full hair growth and normal fur) and hair-less mice models was tested. In brief, on day 0, the animals were subjected to skin injury in two spots on the back, hind end of each animal. Each skin injury spot was treated with 500 μM of either Vaseline (petrolatum) (vehicle) or Laura-8 in vaseline once a day for eight days.

hair-less mouse model = experiment: hair growth in hair-less mouse model; type: in vivo; settings: vs petroleum jelly
Procedure: The ability of CBP/β-catenin antagonist to stimulate hair growth in a hair-less mouse model was tested. In brief, the animals were treated with either petroleum jelly or Laura-8 for 16 days. In addition, skin samples from each animal were taken and examined for hair-follicle formulation.

normal stem cell niche = experiment: aging mice, long term topical administration; type: in vivo, mouse; settings: 12 months (6 to 18 months of age)
Source text: Left mouse is control, whereas right mouse received CBP/catenin (e.g., CBP/β-catenin) antagonists (topical Laura-8 as disclosed herein) for 12 months (from 6 months of age to 18 months of age).

elastin = experiment: ex vivo human skin assay, qRT-PCR of elastin; type: cell-based; settings: 24 hrs; 5 uM ICG-001, 5 uM methylated ICG-001, 1 ug/ml RA
Procedure: (§2) Methods. Ex Vivo human skin assay culture conditions were based upon a paper by Varani J et al Experimental and Molecular Pathology, 2004.
(§3) Briefly, human skin (surgical waste from plastic surgery procedures) was obtained and the subcutaneous layer of fat was trimmed manually with a scalpel. The skin was then cut into small fragments about 2 mm square and placed in 6 well plates. 1 ml of keratinocyte culture medium (Gibco 10724-011) with 1% P/S (penstrep antibiotic) was added to each well. The epidermis, bathed in media was placed facing up. On the next day (overnight culture in the media above), the skin fragments were transferred to fresh wells that contained either 5 uM ICG-001, 5-uM methylated ICG-001 or 1 ug/ml of retinoic acid (RA). After 24 hrs, skin samples in culture were removed for RNA isolation and qRT-PCR analysis of genes of interest (e.g. elastin (a gene involved in skin appearance and pliability (e.g., wrinkling) and aquaporin 1, which is involved with hydration.

aquaporin 1 = experiment: ex vivo human skin assay, qRT-PCR of aquaporin 1; type: cell-based; settings: 24 hrs; 5 uM ICG-001, 5 uM methylated ICG-001, 1 ug/ml RA
Procedure: as §2, §3

For `CC(=O)c1ccc(N=NC(C(N)=O)=C2NC(C)(C)Cc3ccccc32)cc1` [IQ-1], the “asymmetric divisions in the VZ” value ([1]; 3 days (E13.5-16.5)) was 7%, the “effect on number of asymmetric divisions” value ([1]; topical or oral administration to pregnant mice) was “decreases the number of asymmetric divisions” and the “asymmetric divisions in the VZ” value ([1]; topical to timed pregnant mice, 1 day (E13.5 to 14.5)) was “approximately 9%”. The maintenance of pluripotency [2] was “maintains the pluripotency” and the “binding to PR72/130” value [3] was “binds to the PR72/130 subunit of the serine/threonine phosphatase PP2A”.
In the case of `CCCCCCCCCCCC(=O)Oc1ccc(C[C@H]2C(=O)N(Cc3cccc4ccccc34)C[C@@H]3N(C(=O)NCc4ccccc4)CCC(=O)N32)cc1` [Laura-8], the skin healing (skin injury) is reported as “significantly accelerated skin healing process”, the hair growth (hair-less mouse model; 16 days) is reported as “significant hair growth” and the “new hair-follicle formation (skin pathology)” value (hair-less mouse model) is reported as “new hair-follicles were formed; also recorded: substantial new hair-follicle formation”. The “depletion of the normal stem cell niche” value (normal stem cell niche) was “does not deplete the normal stem cell niche”.
With `C[C@H]1C2N(C(=O)NCc3ccccc3)CCC(=O)N2[C@@H](Cc2ccc(O)cc2)C(=O)N1Cc1cccc2ccccc12` (stereo partly drawn) [Me-ICG-001, (6S,9S)—N-benzyl-6-(4-hydroxybenzyl)-9-methyl-8-(naphthalen-1-ylmethyl)-4,7-dioxooctahydro-1H-pyrazino[1,2-a]pyrimidine-1-carboxamide] the expression of elastin (elastin) was “larger increase” and the “expression of aquaporin 1” value (aquaporin 1) was “larger increase”.
